For experiment [1], the system named is retrosplenial cortex (RSP). Kind of experiment: Widefield imaging of cortical activity in GCaMP6s mice. Particulars: i.p. injection, ketamine 50 mg/kg.
Excerpt: We recorded multiregional neuronal activity by leveraging widefield microscopy, a cleared skull preparation, and atlas registration in GCaMP6s-expressing mice (FIGS. 1A-1C)^6,8,15.
As described^8, mice were anesthetized with isoflurane, the scalp was removed, the skull cleaned and dried, and a custom head-plate was cemented to contacts over the cerebellum and in front of the olfactory bulb. The skull was then covered in a thin layer of cyanoacrylate glue (Apollo 2000, Cyberbond), clear dental acrylic (Ortho-Jet, Lang Dental), and clear nail polish (Electron Microscopy Services). […] (0.1 mg/kg) was injected subcutaneously for pain management. […] Imaging was performed on a custom-built fluorescence microscope designed for high light collection efficiency and large field of view. […] Alternating 410 nm and 488 nm illumination for non-Ca^2+ dependent artifact removal was controlled using a microcontroller (Arduino) slaved to the frame output trigger of the camera.
Analysis was performed using custom MATLAB (MathWorks) scripts. Widefield imaging videos were registered to a 2D top-projection atlas generated from the annotated Allen Brain Atlas volume, version CCFv2, in MATLAB (MathWorks), using an affine transformation computed from four manually selected control points. Each video was DF/F normalized, using the median for each pixel over the entire time series as F. The 410 nm channel was then temporally smoothed using a moving average (width=400 ms). The smoothed 410 nm DF/F signal for each pixel was regressed onto the 488 nm DF/F signal for the corresponding pixel, and the regression coefficients were used to scale the 410 nm channel to the 488 nm channel. This scaled 410 nm DF/F signal was then subtracted from the 488 nm DF/F signal to produce a normalized signal for each pixel. For quantification, activity traces were extracted from points centered in five cortical regions (visual, somatosensory, parietal, motor, retrosplenial) on the left hemisphere of the brain. The video data was Gaussian smoothed spatially (radius=2 pixels).
Each trace (corresponding to either a fiber photometry signal, a cellular two-photon signal, a widefield regional centroid, a widefield pixel, an sEEG trace, or a smoothed spike rate Neuropixels trace) was z-scored, and the power spectral density (PSD) was then estimated using Welch's method (pwelch( ) in Matlab), with a window size of 10*fs (15*fs for human sEEG) where fs is the sampling rate of the signal. The average band power within a specified band (i.e. 1-3 Hz) was then computed by integrating the PSD estimate (bandpower in Matlab). […] Unless otherwise indicated, the PSD was computed across the time window from minutes 10 to 11 post-injection.
The test system of experiment [2] is mice. Kind of experiment: Hot plate test. Particulars: for dissociation-like behavior (sensory-detection vs affective responses), hot plate: other drug classes.
Description: Hot Plate Test: Mice were placed on the hot plate (Bioseb), which was set to 55° C. and surrounded by a clear circular perimeter. Mouse activity was recorded using two cameras from different angles. The experiment ended when the mouse jumped to escape or 90 seconds had elapsed. Care was taken to clean and dry the hot plate apparatus between animals. For optogenetic experiments, mice were connected to patch cords and then returned to a holding cage. Illumination began 30 seconds before mice were placed on the hot plate.
For experiment [3], the system named is mice. Kind of experiment: Open field test. It counts as in vivo, mouse. Particulars: 5 min session, compared with saline. The source says:
Open Field Test: Mice were placed in an evenly illuminated 50 cm×50 cm open field test box. Mouse position was captured using a webcam and Viewer software (Biobserve).

For experiment [4], the system named is mice. Kind of experiment: Tail suspension test. It counts as in vivo, mouse. Particulars: PCP 5 mg/kg. The procedure: Tail Suspension Test: Mouse activity was recorded using a 60 Hz web camera. Struggling activity was quantified for minutes 2-10. […] Illumination began 30 seconds before tails were secured with tape and suspended from the beam. Mice were excluded if they climbed on their own tails.

Entries after “also recorded” stand apart in the source; their conditions may differ.

As for `CC12CC3CC(C)(C1)CC(N)(C3)C2` [memantine], in experiment [1], the “1-3 Hz oscillation localized to retrosplenial cortex (RSP), widefield imaging” value (“1-3 Hz oscillation localized” below) is given as “did not elicit oscillation”.

Consider `CN1C(=O)CN=C(c2ccccc2)c2cc(Cl)ccc21` [diazepam], for which the “dissociation-like behavior (sensory-detection vs affective responses), hot plate” value in the experiment on mice [2] is on record as “did not recapitulate dissociative-like behavior”. In addition, the “1-3 Hz oscillation localized” value in experiment [1] is on record as “Neither the GABAergic sedative diazepam nor the centrally-acting opioid-analgesic buprenorphine elicited the rhythm”. In the experiment on mice [3], the open-field locomotion velocity entry is recorded as “decreased velocity”.

Consider `CC(C)c1cccc(C(C)C)c1O` [propofol], for which the “1-3 Hz oscillation localized” value in experiment [1] was “elicited waves of cortical activity without RSP restriction”.

With “(+)-Lysergic acid diethylamide (+)-tartrate (2:1) [LSD]”, in the experiment on mice [2] (LSD 0.3 mg/kg), the “responsivity to salient stimuli (time-to-jump, rearing/socialization)” value is listed as “tended to increase responsivity to salient stimuli”. In addition, in the experiment on mice [2], the “dissociation-like behavior (sensory-detection vs affective responses), hot plate” value is given as “disrupted neither sensory-detection nor affective responses”. Moreover, the “1-3 Hz oscillation localized” value in experiment [1] is recorded as “did not elicit oscillation”. Further, the open-field locomotion velocity entry in the experiment on mice [3] was “reducing locomotion in the stimulus-poor open-field; also recorded: decreased velocity”.

For the compound `c1ccc(C2(N3CCCCC3)CCCCC2)cc1` [PCP, phencyclidine], the “dissociation-like behavior (sensory-detection vs affective responses), hot plate” value with mice [2] was “recapitulated ketamine's behavioral disconnection between sensory-detection and affective responses”. In addition, the “1-3 Hz oscillation localized” value in experiment [1] was “induced the RSP-localized oscillation”. Besides, the open-field locomotion velocity entry in the experiment on mice [3] is “locomotion velocity was unchanged”. Further, the “longer-timescale escape and social behaviors” value in the experiment with mice [4] was “inhibited longer-timescale escape and social behaviors”.

`C[C@]12N[C@H](Cc3ccccc31)c1ccccc12` [MK-801]: the “1-3 Hz oscillation localized” value in experiment [1] was “induced the RSP-localized oscillation”.

In the case of `Cc1cccc([C@H](C)c2cnc[nH]2)c1C` [dexmedetomidine], the “1-3 Hz oscillation localized” value in experiment [1] is reported as “elicited waves of cortical activity without RSP restriction”.
